Assays:
[1] = Example 2 urinary pharmacokinetics, normal renal function vs severe renal impairment; conditions: single intranasal 160 mg cocaine HCl; for 0 to 32 hour urinary recovery (geometric mean) / 0 to 32 hour urinary recovery (mean) / 0 to 32 hour urinary recovery (median): metabolites as cocaine equivalents
Description: For the urine analysis of cocaine, BE, and EME, individual urinary recoveries for each analyte were determined over each collection interval as the product of the urine concentration times the urine volume. The total recoveries were determined as the sum of the recoveries over all the intervals. Total urinary recoveries were also expressed as the percentage of the administered dose, after correction for the molecular weight of each analyte. The renal clearances of cocaine, BE, and EME were determined as the urinary recovery (in μg) divided by the plasma AUC over the same time interval (the longest period for which both plasma and urine measurements were available).
Urine was collected prior to dosing and from 0-2, 2-4, 4-8, 8-12, 12-24, and 24-32 hours after the beginning of dose application. […] Testing methods used were consistent with those used by inVentiv Health Clinical Lab, Inc., Miami, Fla., U.S.A. Urinary pharmacokinetic parameters included total urinary recovery (μg), urinary recovery as a percentage of dose, and CLr.

[2] = Example 1 urinary pharmacokinetics after intranasal administration; assay type: in vivo, human; conditions: healthy subjects; single intranasal 160 mg cocaine HCl; urine 0-12 h; metabolites as cocaine equivalents
Description: (§1) A single dose of a pharmaceutical composition was administered to both nostrils using cottonoid pledgets. […] Each pledget absorbed approximately 1 mL of pharmaceutical composition (i.e., 40 mg cocaine hydrochloride). Two soaked pledgets were placed into each nasal cavity of the subject and against the anterior septum for 20 minutes; thus, a total dose of 160 mg of cocaine hydrochloride was administered.
Urine samples were collected pre-dose and at the following intervals from the start of intranasal application of the pharmaceutical composition: 0-2 hours, 2-4 hours, 4-8 hours, and 8-12 hours. […] A 25-μL aliquot of each urine sample was processed by liquid-liquid extraction.
Urinary pharmacokinetic parameters were analyzed using noncompartmental methods.

[3] = Example 1 single-dose plasma pharmacokinetics after intranasal administration; assay type: in vivo, human; conditions: healthy subjects; single intranasal 160 mg cocaine HCl; plasma, >12 h after dosing
Description: Single-dose plasma and urinary pharmacokinetics of the pharmaceutical composition following intranasal administration was characterized in this study. This was a single-dose study in 30 healthy volunteers. The objective of the study was to examine the systemic pharmacokinetics of the pharmaceutical composition following acute, topical intranasal administration.
as §1
Blood samples were collected pre-dose (30 minutes before pledget insertion), and 7.5, 15, 20, 30, 45, 60, 75, 90, and 105 minutes and 2, 3, 4, 6, 8, 10, and 12 hours from the start of application of the pharmaceutical composition.
The effect of gender on Cmax, Tmax, AUClast, AUCinf, and t1/2 was determined. The effects of age, body weight, and BMI on AUClast were determined.

[4] = severe renal impairment, listed as Ecgonine Methyl Ester

COC(=O)[C@@H]1[C@H]2CC[C@@H](C[C@@H]1O)N2C [EME, ecgonine methyl ester]
0-32 h Urinary Recovery (geometric mean) ([1]; normal renal function): 894.9 µg | 0-32 h Urinary Recovery (mean) ([1]; normal renal function): 1095 µg | 0-32 h Urinary Recovery (median) ([1]; normal renal function): 892.8 µg | Renal Clearance, CLr (geometric mean) ([1]; normal renal function): 18.1 L/h | Renal Clearance, CLr (mean) ([1]; normal renal function): 19.1 L/h | Renal Clearance, CLr (median) ([1]; normal renal function): 21.4 L/h | Renal Clearance, geometric mean ([1]; normal renal function): 302.2 mL/min | Renal Clearance, mean ([1]; normal renal function): 317.8 mL/min | Renal Clearance, median ([1]; normal renal function): 356.1 mL/min | 0 to 32 hour urinary recovery (geometric mean) ([1]; normal renal function): 0.954 % of administered dose | 0 to 32 hour urinary recovery (mean) ([1]; normal renal function): 1.17 % of administered dose | 0 to 32 hour urinary recovery (median) ([1]; normal renal function): 0.952 % of administered dose | 0 to 32 hour urinary recovery (mean) ([1]; normal renal function, listed as Ecgonine Methyl Ester): 1.167 % of administered dose | 0-32 h Urinary Recovery (geometric mean) ([1]; severe renal impairment): 1177.8 µg | 0-32 h Urinary Recovery (mean) ([1]; severe renal impairment): 1425 µg | 0-32 h Urinary Recovery (median) ([1]; severe renal impairment): 1104 µg | Renal Clearance, CLr (geometric mean) ([1]; severe renal impairment): 4.23 L/h | Renal Clearance, CLr (mean) ([1]; severe renal impairment): 4.95 L/h | Renal Clearance, CLr (median) ([1]; severe renal impairment): 4.05 L/h | Renal Clearance, geometric mean ([1]; severe renal impairment): 70.6 mL/min | Renal Clearance, mean ([1]; severe renal impairment): 82.5 mL/min | Renal Clearance, median ([1]; severe renal impairment): 67.6 mL/min | 0 to 32 hour urinary recovery (geometric mean) ([1]; severe renal impairment): 1.26 % of administered dose | 0 to 32 hour urinary recovery (mean) ([1]; severe renal impairment): 1.52 % of administered dose | 0 to 32 hour urinary recovery (median) ([1]; severe renal impairment): 1.177 % of administered dose | 0 to 32 hour urinary recovery (geometric mean) [1, 4]: 1.255 % of administered dose | 0 to 32 hour urinary recovery (mean) [1, 4]: 1.519 % of administered dose | Total Urinary Recovery (Geometric mean) [2]: 252 µg | Total Urinary Recovery (Mean) [2]: 275 µg | Total Urinary Recovery (Median) [2]: 276 µg | Urinary Recovery (Geometric mean) [2]: 0.240 % dose | Urinary Recovery (Mean) [2]: 0.262 % dose | Urinary Recovery (Median) [2]: 0.263 % dose | plasma level not exceeded (metabolite not detectable in plasma) [3]: ≤ 50 ng/mL

From patent US10413505B1, “Pharmaceutical compositions and methods of using the same” (priority 2017, dated 2019)
